Series [1] relates to cell death due to glucose deprivation. To be noted: cited from earlier work.
Series [2] has as its system neuronal insulin resistance. To be noted: cited from earlier work.
Series [3] concerns transgenic mouse models of AD, and mouse and rat models of neurodegeneration or brain injury. To be noted: in vivo; cited from earlier work.
For series [4], the system named is diabetic patients with AD or mild cognitive impairment. To be noted: placebo-controlled clinical trials; cited from earlier work.
The subject of series [5] is rat brain. Description: Rat BOLD fMRI study of resting state functional connectivity. Format: in vivo. The method, then: BOLD fMRI was used to measure drug-related changes in resting state functional connectivity across the whole brain.
Adult male Wistar rats (275±25 g) were housed separately and maintained on a 12-h light, 12-h dark schedule. Food and water was provided ad libitum. Animals were cared for in accordance with the guidelines published in the Guide for the Care and Use of Laboratory Animals (National Institutes of Health Publications No. 85-23, Revised 1985). Animal body weights were measured approximately 24 hours before Day −3, and on Study Days 3 and 6.
Pioglitazone HCl (PIO) was dissolved in 0.5 mol/L citric acid (CA) to yield a stock solution at a concentration of 0.32 mg/10 mL/kg. Other dosages were prepared by appropriate dilution of the stock solution with 0.5 mol/L CA to yield dose volumes of 10 mL/kg. Control rats received the vehicle at 10 mL/kg. Dose concentrations were based on the weight of the test article as supplied (i.e., as the HCl salt), with the dose adjusted to the most recent body weight of the animal. Daily dosing with PIO in solution was by oral gavage at approximately the same time every day. Animals were anesthetized lightly with isoflurane immediately beforehand to facilitate dosing.
All animals used in the imaging studies were acclimated to the MRI holding device by being placed in it for 15-90 minutes daily for at least 7 days, as previously described (Zhang et al. 2010 J Neurosci Methods 189: 186-196; Liang et al. 2011 J Neurosci 31: 3776-3783).
After the acclimation period, animals were assigned to 1 of 7 treatment arms matched for mean body weights (see Table 1). Dosing occurred once daily, at approximately the same time every day. All animals were imaged at Baseline (Study Day −3), approximately 2.5 to 3 h after dosing with vehicle. Dosing began 3 days later (Study Day 1). On this day, all animals were administered either vehicle (CA) or PIO depending on their group assignment. On Study Day 2, one vehicle group and one group treated with PIO at 0.08 mg/kg/day (Acute Arm) were imaged approximately 2.5 to 3 h after dosing. For all groups, dosing continued for seven days total. On Study Day 7, all rats were imaged approximately 2.5 to 3 h after administration of the final dose.
Animal preparation activities related to imaging were initiated to insure that the imaging itself occurred approximately 2.5 to 3 h after dosing. The animals were prepared for positioning in the restraint under isoflurane anesthesia as previously described (Zhang et al. 2010, supra). […] Imaging was conducted on awake animals.
All MR experiments were conducted using a 4.7 T/40 cm horizontal magnet (Oxford, UK) interfaced with a BiospecBruker console (Bruker, Germany) and equipped with a 20 G/cm magnetic field gradient. A dual ^1H radiofrequency (RF) coil configuration (Insight Neurolmaging Systems, Worcester, Mass.) consisting of a volume coil for exciting the water proton spins and a surface coil for receiving MRI signal was used; the volume and surface coils were actively tuned and detuned to prevent mutual coil coupling. This dual-coil configuration allowed for sufficient RF field homogeneity in the rat brain for RF transmission, while preserving the advantage of higher signal-to-noise ratio (SNR) provided by the smaller reception coil.
Anatomical images were acquired first using a multi-slice fast spin-echo sequence (RARE) with the parameters: repetition time (TR)=2125 ms; RARE factor=8; effective echo time (TE)=50 ms; matrix size=256×256; field of view (FOV)=3.2×3.2 cm^2; slice number=18; slice thickness=1 mm; n=8.

Series [6] is described as follows: in vivo. To be noted: rat. The source says: (§1) Extrapolation to the corresponding dosage in humans was achieved while adjusting for the relative AUC for each.
Series [7] can be described thus: Human exposure (AUC) used for dose extrapolation. To be noted: in vivo, humans, dose of 7.5 mg.
Description: as §1

Structures can show the parent of a compound that is named as a salt. Where two headings read alike, the source gives them in different places.

On to `CCc1ccc(CCOc2ccc(CC3SC(=O)NC3=O)cc2)nc1` (stereo not shown) [pioglitazone, Pioglitazone], for which, in series [1], the “concentration that significantly reduces cell death due to glucose deprivation” value was at least 1 nM; the “expression of NRF1, TFAM1 and UCP-2” value is “increases expression”. Also, in series [2], the neuronal insulin resistance result is recorded as “improves neuronal insulin resistance”. Also, the “reported effects in animal models (amyloid plaque burden, brain glucose utilization, inflammation, oxidative stress, memory and learning deficits, neurogenesis)” value in series [3] was “Beneficial effects”. Moreover, in series [4], the cognition result is “improved”, the hyperinsulinemia result was “improved” and the “regional cerebral blood flow” value is “improved regional cerebral blood flow”. Further, the “change in metabolism in the central region of the deep cortical structures of the brain (fMRI)” value in series [5] (even the lowest doses, orally-administered, immediate release) is recorded as “produce a change in metabolism”. Moreover, under “0.5 mg dose”, the brain concentration entry is “approximately 6.7 nM” and the serum concentration result is “approximately 33.3 nM”. Also, where the note is “1.5 mg dose”, the brain concentration entry was “approximately 20 nM” and the serum concentration result is “approximately 100 nM”. For the same molecule, under “4.5 mg dose”, the brain concentration result is listed as “approximately 50 nM” and the serum concentration entry was “approximately 300 nM”. In addition, under “9 mg dose”, the brain concentration result is listed as “approximately 120 nM” and the serum concentration entry is reported as “approximately 600 nM”.
Regarding `CCc1ccc(CCOc2ccc(CC3SC(=O)NC3=O)cc2)nc1` (stereo not shown) [PIO, Pioglitazone HCl], the “time at which functional changes were induced” value in series [5] (0.08 mg/kg/day, earliest time point assayed after initiation of treatment) was at most 24 h. In addition, the “fMRI signal relative to lower dosages” value in series [5] (0.32 mg/kg/day, appearance in FIG. 1, to be confirmed) was “diminished signal”. Further, in series [5] (24 hours after initiation of treatment), the “dose that induced functional changes at earliest time point” value is at least 0.08 mg/kg/day. Further, in series [5] (group-averaged fMRI signal, treatment day 7, relative to vehicle control), the “dose that induces change in metabolism in deep subcortical structure of the rat brain (fMRI)” value is listed as at least 0.04 mg/kg/day. Further, the “blood brain barrier penetration” value in series [5] (low-dose PIO, administered orally, concluded from fMRI changes) is listed as “penetrates the blood brain barrier”. The “dose that induces changes in multiple brain regions” value in series [5] (oral, relative to vehicle control) is given as at least 0.04 mg/kg/day. Also, the AUC (as a rule, concentration integrated over time) is 570 ng·h/mL in series [6] (Wistar, po, 0.04 mg/kg/day); 1140 ng·h/mL in series [6] (Wistar, po, 0.08 mg/kg/day); 2280 ng·h/mL in series [6] (Wistar, po, 0.16 mg/kg/day); 4550 ng·h/mL in series [6] (Wistar, po, 0.32 mg/kg/day); 7110 ng·h/mL in series [6] (0.5 mg/kg/day); 2800 ng·h/mL in series [7].

The values are drawn from patent US11179375B2, “Methods and drug products for treating Alzheimer's disease” (Zinfandel Pharmaceuticals, Inc., priority 2011, dated 2021).
